Experiment: gradient 5% acetonitrile 3 min, to 50% in 2 min, to 85% in 15 min, held 3 min, 100 µL/min
Conditions: column: Zorbax Extend-C18 2.1 x 50 mm; eluents: water / acetonitrile, 0.1% formic acid
Method in brief: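 Using water and acetonitrile that each contained 0.1% formic acid, mixtures of ~100 pure standards were separated at 100 μL/min on a Zorbax Extend-C18 column (2.1 × 50 mm, 1.8 μm). The HPLC fed a quadrupole time-of-flight mass spectrometer working in positive and negative ionization mode, with dead and dwell volumes of 40 μL and 900 μL. Data were acquired over 3 months. Retention time was read from computationally picked adduct peaks after manual inspection of each.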

Row | SMILES | RP-LC retention time [s]
1 | CC(=O)c1ccc2c(c1)[C@H](NC(=O)c1ccc(F)c(Cl)c1)[C@H](O)C(C)(C)O2 | 944
2 | CC(=O)N1CCc2cc(-c3ccc(C(=O)NCCN4CCCC4)cc3)ccc21 | 607
3 | CC(C)(C)n1nnnc1C1CC2(CCOCC2)C(=O)N1Cc1ccc(F)cc1F (stereo unspecified) | 809
4 | O=C(COc1ccccc1)Nc1nnc(SCC(=O)N2CCCc3ccccc32)s1 | 859
5 | O=C(Nc1nc(-c2cc(Cl)sc2Cl)cs1)c1ccc([N+](=O)[O-])s1 | 1310
6 | Cc1cccc(-n2c(N3CCCC(C(=O)NCc4ccccc4Cl)C3)nc3ccsc3c2=O)c1 (stereo unspecified) | 956
7 | CCC(=O)N1CCC2(CC1)NCc1ccccc1-n1ccnc12 | 562
8 | Cc1cc(Nc2ccc(NC(=O)c3sc(C)nc3C)cc2)nc(N2CCCC2)n1 | 583
9 | O=C(Nc1ccc2c(c1)Cc1ccccc1-2)c1csc(Nc2ncccn2)n1 | 972
10 | O=C(NCCn1ncccc1=O)Nc1ccc(OC(F)(F)F)cc1 | 674
11 | O=C(Cn1nc(N2CCOCC2)c2ccccc2c1=O)Nc1ccc(C(F)(F)F)cc1 | 898
12 | CCC(C)NC(=O)c1ccc2ccnc(N3CCN(c4ccc(F)cc4)CC3)c2c1 (stereo unspecified) | 785
13 | CCN1C(=O)COc2ccc(-c3noc(C4CCN(C(C)=O)CC4)n3)cc21 | 744
14 | CC(C)CCNC(=O)C1CCN(c2cncnc2N2CCN(C)CC2)CC1 | 561
15 | CCNC(=O)C1CCCN(c2nc3ncn(CC(=O)NCc4ccccc4)c(=O)c3s2)C1 (stereo unspecified) | 638
16 | O=C(C1CCN(c2nc3ccc(-c4ccc(F)cc4)nc3s2)CC1)N1CCCCC1 | 1080
17 | CN(C)S(=O)(=O)c1ccc(C(=O)Nc2sc3c(c2C#N)CC(C)(C)NC3(C)C)cc1 | 574
18 | Cc1nc(NC2=NCN(Cc3ccc4c(c3)OCO4)CN2)nc2ccccc12 | 707
19 | O=C(Cc1c[nH]c2ccccc12)NCCc1c[nH]c2ccc(Cl)cc12 | 857
20 | Cc1noc(C)c1S(=O)(=O)N1CCCCC1c1nncn1C (stereo unspecified) | 647
21 | Cc1oc2ncnc(N3CCCCC3)c2c1C(=O)N1CCN(c2ccccn2)CC1 | 591
22 | CCCN(C)C(=O)c1c(C)oc2ccn(Cc3ccc(F)cc3)c(=O)c12 | 761

Row | SMILES | RP-LC retention time [s]
23 | CCOc1ccc(NC(=O)NC2CCN(c3cc(C)cc(C)c3)C2=O)cc1 (stereo unspecified) | 886
24 | CCC(=O)Nc1ccc(C2(C(=O)O)CCC2)cc1 | 673
25 | CCn1cc(-c2nc(C(=O)N3CCN(c4ccc(OC)cc4)CC3)cs2)c2cccnc21 | 887
26 | CC(C)Cn1c(=O)c(N2CCN(C(=O)Cc3ccsc3)CC2)nc2ccncc21 | 653
27 | CCn1cnc(S(=O)(=O)N2CCCC(C(=O)Nc3ccc(Cl)cc3C)C2)c1 (stereo unspecified) | 795
28 | Fc1ccccc1-c1nc(-c2ccc3nncn3c2)no1 | 785
29 | Cn1nc(C(=O)N2CCCC(C(=O)Nc3ccccc3)C2)c2c1CCN(C(=O)C1CCCC1)C2 (stereo unspecified) | 786
30 | O=C(Nc1ccc2c(c1)CCC2)C1CC(=O)N(CCc2c[nH]c3ccc(Cl)cc23)C1 (stereo unspecified) | 921
31 | O=C(c1ccc(F)c(F)c1)N1CCN(c2nc(CN3CCCC3)cs2)CC1 | 635
32 | CCC(C)NC(=O)Cn1c(=O)c2cnc(-c3ccc(Cl)cc3)nc2n(CC)c1=O (stereo unspecified) | 740
33 | CN1C(=O)c2cccn2CC1CNC(=O)c1cccn1C (stereo unspecified) | 636
34 | CC(C)CCNC(=O)CN1c2ccc(F)cc2-c2ccccc2S1(=O)=O | 963
35 | Cc1c(C(=O)NC2CC2)cnn1-c1cc(-c2nc(C(C)(C)C)no2)ccn1 | 668
36 | CC(Oc1cccc(Cl)c1)C(=O)N1CCn2cnnc2C1 (stereo unspecified) | 622
37 | CN(C)c1ccc(-c2nnc3sc(-c4ccc5ccccc5n4)nn23)cc1 | 1360
38 | CC1=C(c2ccccc2)S(=O)(=O)N=C1N1CCCN(C(=O)NCCC(C)C)CC1 | 818
39 | O=C(Cn1cc(-c2ccccc2)c2ncnc(N3CCOCC3)c21)N1CCCC1 | 651
40 | CCOC(=O)C1CCN(C(=O)c2ccc3c(c2)CCCN3S(C)(=O)=O)CC1 | 765
41 | CCc1cccc(NC(=O)N2CCCC2c2nncn2C2CCCC2)c1 (stereo unspecified) | 742
42 | O=C(CN1CC=C(c2cnn(-c3ccccc3)c2)CC1)N1CCN(c2ccccc2)CC1 | 702
43 | CCCC(=O)N1CCc2c([nH]c3ccccc23)C1c1ccc(C)cc1 (stereo unspecified) | 1150
44 | CCOc1cc(=O)n2c(c1C(=O)OCc1cccc(C)c1)CCCC2 | 926

Row | SMILES | RP-LC retention time [s]
45 | CCCCC(=O)N1CCN(c2ccc(=O)n(-c3ccc(Cl)cc3)n2)CC1 | 829
46 | CCCN(C)C(=O)c1cc2c(s1)N(CC1CC1)CCCC2 | 1160
47 | Cc1ccc(S(=O)(=O)N2CC3CN(C(=O)c4cccn4C)CC(C2)O3)cc1 | 807
48 | COc1ccc(Cn2nc3ccc(S(=O)(=O)N4CCC(C)CC4)cn3c2=O)cc1F | 1340
49 | CCCNC(=O)c1csc(C(=O)NCC)n1 | 670
50 | O=C(Nc1ccc(F)cc1F)N1CCN(CCn2c(-c3ccncc3)nc3cccnc32)CC1 | 581
51 | Cc1ccc2ncn(C3CCN(S(=O)(=O)c4ccc(CC(C)C)cc4)CC3)c(=O)c2c1 | 1150
52 | Cc1cccc(-c2nnc(SCc3cc(=O)n4nc(C)sc4n3)o2)c1 | 782
53 | CCCS(=O)(=O)N1CC(F)(F)C[C@H]1c1nc(-c2cccnc2)no1 | 802
54 | CCCCn1cnc2c(-c3ccccc3)cn(CC(=O)NC(C)C)c2c1=O | 905
55 | CN(Cc1ccco1)C(=O)c1ccc(NC(=O)C2CC2)cc1N1CCCCCC1 | 869
56 | CCc1c(C(=O)O)nnn1-c1ccc(Cl)c(C)c1 | 809
57 | Cc1cccc(N2C(=O)NC3CC2(C)Oc2ccccc23)c1 (stereo unspecified) | 852
58 | O=C(Cn1cnc2nc(N3CCC(C(=O)NC4CC4)CC3)sc2c1=O)Nc1ccccc1F | 885
59 | CC(Oc1ccc(Cl)cc1)C(=O)N1CCCN(c2cc(-c3ccc(Br)cc3)[nH]n2)CC1 (stereo unspecified) | 892
60 | Cc1ccc(-c2cn3c(CC(=O)Nc4ccc(Cl)cc4F)csc3n2)cc1C | 966
61 | COc1cc(OC2CCN(C)CC2)ccc1Nc1ncc2c(n1)n(C1CCCC1)c(=O)n2C | 654
62 | CCN1C(=O)c2ccccc2Oc2ccc(C(=O)NC3CCCCC3)cc21 | 967
63 | COC(=O)c1c(C)[nH]c(C(=O)N2CCCC(C(=O)NCCCc3ccccc3)C2)c1C (stereo unspecified) | 800
64 | O=C(c1ccc(Cl)s1)N1CCCCC1c1nncn1CC1CC1 (stereo unspecified) | 800
65 | Cc1ccc(CNC(=O)N2C[C@@H](F)C[C@H]2C(=O)N2CCc3ccccc3C2)cc1 | 887
66 | CCn1nccc1-c1cccc(-c2noc(-c3ccc(CS(=O)(=O)c4ccccc4)cc3)n2)c1 | 1160

Reference: the METLIN SMRT retention time set (Domingo-Almenara et al. 2019)
